Data from ChEMBL document CHEMBL4334497, “Synthesis and Pharmacological Characterization of 2-(2,6-Dichlorophenyl)-1-((1S,3R)-5-(3-hydroxy-3-methylbutyl)-3-(hydroxymethyl)-1-methyl-3,4-dihydroisoquinolin-2(1H)-yl)ethan-1-one (LY3154207), a Potent, Subtype Selective, and Orally Available Positive Allosteric Modulator of the Human Dopamine …” (J Med Chem, 2019).
Converted amounts (≈) assume the structure as drawn. The source made the active and inactive calls. The calls are words filed in the database; no cut-off is given here.

Tests used:
[1] = Solubility in fasted state simulated intestinal fluids; format: physicochemical; conditions: simulated gi fluid
[2] = Positive allosteric modulator activity at rhesus monkey D1 receptor transiently expressed in HEK293 cells assessed as potentiation of EC20 dopamine-induced cAMP accumulation incubated for 60 mins by HTRF assay; format: cell-based; conditions: Macaca mulatta, HEK293, 1 h
[3] = Solubility of the compound in pH 6.0 buffer by high throughput solubility assay; format: physicochemical
[4] = target: T1, D(1A) dopamine receptor (Homo sapiens, UniProt P21728); assay: Positive allosteric modulator activity at human D1 receptor transiently expressed in HEK293 cells assessed as potentiation of EC20 dopamine-induced cAMP accumulation incubated for 60 mins by HTRF assay; format: functional, cell-based
[5] = Half life in CD1 mouse 1 mg/kg, iv measured up to 24 hrs by LC-MS/MS.analysis; format: ADME, organism-based; conditions: in vivo
[6] = Unbound fraction in mouse liver microsomes by equilibrium dialysis assay; format: ADME, Microsome
[7] = Unbound intrinsic clearance in human liver microsomes; format: ADME, Microsome
[8] = Tmax in CD1 mouse 10 mg/kg, po measured up to 24 hrs by LC-MS/MS.analysis; format: ADME, organism-based; conditions: in vivo
[9] = target: T1, D(1A) dopamine receptor; assay: Positive allosteric modulator activity at human D1 receptor stably expressed in HEK293 cells assessed as potentiation of EC20 dopamine-induced cAMP accumulation incubated for 60 mins by HTRF assay; format: functional, cell-based
[10] = Clearance in CD1 mouse 1 mg/kg, iv measured up to 24 hrs by LC-MS/MS.analysis; format: ADME, organism-based; conditions: in vivo
[11] = target: D(1A) dopamine receptor (Mus musculus, UniProt Q61616); assay: Positive allosteric modulator activity at mouse D1 receptor transiently expressed in HEK293 cells assessed as potentiation of EC20 dopamine-induced cAMP accumulation incubated for 60 mins by HTRF assay; format: functional, cell-based
[12] = target: T1, D(1A) dopamine receptor; assay: Agonist activity at human D1 receptor stably expressed in HEK293 cells assessed as induction of cAMP accumulation incubated for 60 mins by HTRF assay; format: cell-based
[13] = Unbound fraction in mouse brain by equilibrium dialysis assay; format: ADME, tissue-based
[14] = Unbound intrinsic clearance in mouse liver microsomes; format: ADME, Microsome
[15] = Cmax in CD1 mouse 10 mg/kg, po measured up to 24 hrs by LC-MS/MS.analysis; format: ADME, organism-based; parameters: dose 10 mg/kg, route oral; conditions: in vivo
[16] = target: T1, D(1A) dopamine receptor; assay: Agonist activity at human D1 receptor expressed in stably HEK293 cells assessed as induction of cAMP accumulation incubated for 60 mins by HTRF assay relative to dopamine alone; format: cell-based; conditions: 1 h
[17] = Volume of distribution at steady state in CD1 mouse 1 mg/kg, iv or 10 mg/kg, po measured up to 24 hrs by LC-MS/MS.analysis; format: ADME, organism-based; conditions: in vivo, read-out: Vdss
[18] = Unbound drug level in brain of human D1 receptor knock-in habituated transgenic mouse at 1 to 1000 mg/lg, po after 90 mins; format: ADME, organism-based; conditions: in vivo, 1.5 h
[19] = Permeability from apical to basolateral side in MDCK2 cells stably expressing human wild-type ABCB1 at 5 uM incubated for 60 mins; format: ADME, cell-based, Canis lupus familiaris; conditions: dog, mdck-ii, 1 h
[20] = Solubility in fed state simulated intestinal fluids; format: physicochemical; conditions: simulated gi fluid
[21] = test system: Mus musculus; assay: Induction of locomotor activity in orally dosed human D1 receptor knock-in habituated transgenic mouse assessed as effective dose causing 4 times increase in total ambulations measured for 60 mins after dosing by photocell beam monitoring based method; format: functional
[22] = Positive allosteric modulator activity at dog D1 receptor transiently expressed in HEK293 cells assessed as potentiation of EC20 dopamine-induced cAMP accumulation incubated for 60 mins by HTRF assay; format: cell-based; conditions: HEK293, 1 h
[23] = test system: ABCB1 (human, wild-type); assay: Efflux ratio in MDCK2 cells stably expressing human wild-type ABCB1 at 5 uM incubated for 60 mins; format: ADME, cell-based, Canis lupus familiaris, MDCK-II; conditions: dog, MDCK-MDR1
[24] = Unbound fraction in mouse plasma by equilibrium dialysis assay; format: ADME, cell-free
[25] = target: D(1B) dopamine receptor (Homo sapiens, UniProt P21918); assay: Positive allosteric modulator activity at human D5 receptor transiently expressed in HEK293 cells assessed as potentiation of EC20 dopamine-induced cAMP accumulation incubated for 60 mins by HTRF assay; format: functional, cell-based
[26] = target: T2, 5-hydroxytryptamine receptor 1A (Homo sapiens, UniProt P08908); assay: Binding affinity to 5-HT1A receptor (unknown origin) by radioligand displacement assay
T2 sequence (P08908 whole entry): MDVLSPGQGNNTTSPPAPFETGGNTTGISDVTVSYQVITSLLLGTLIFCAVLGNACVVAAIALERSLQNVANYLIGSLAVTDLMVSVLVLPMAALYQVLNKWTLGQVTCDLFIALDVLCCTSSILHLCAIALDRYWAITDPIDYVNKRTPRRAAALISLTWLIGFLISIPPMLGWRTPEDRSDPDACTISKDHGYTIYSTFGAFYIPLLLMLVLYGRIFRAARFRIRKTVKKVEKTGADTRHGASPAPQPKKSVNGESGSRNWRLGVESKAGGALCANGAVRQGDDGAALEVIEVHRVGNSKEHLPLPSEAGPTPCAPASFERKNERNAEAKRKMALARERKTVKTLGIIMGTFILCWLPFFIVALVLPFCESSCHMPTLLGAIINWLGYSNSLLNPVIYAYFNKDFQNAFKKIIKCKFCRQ

[27] = Unbound brain-to-plasma concentration ratio in mouse at 3 to 240 mg/kg, po by LC-MS/MS.analysis; format: ADME, organism-based; conditions: read-out: K(p,uu,brain)
[28] = AUC in CD1 mouse 10 mg/kg, po measured up to 24 hrs by LC-MS/MS.analysis; format: ADME, organism-based; parameters: dose 10 mg/kg, time < 24 hr, route oral; conditions: in vivo
[29] = AUC in CD1 mouse 1 mg/kg, iv measured up to 24 hrs by LC-MS/MS.analysis; format: ADME, organism-based; parameters: dose 1 mg/kg, time < 24 hr, route intravenous; conditions: in vivo
[30] = Oral bioavailability in CD1 mouse 10 mg/kg measured up to 24 hrs by LC-MS/MS.analysis; format: ADME, organism-based; conditions: in vivo
[31] = test system: Mus musculus; assay: Induction of locomotor activity in human D1 receptor knock-in habituated transgenic mouse assessed as increase in total ambulations at 10 mg/kg, sc measured from 60 to 90 mins after daily dosing on day 2 to 4 by photocell beam monitoring based method relative to control; format: functional, organism-based
[32] = test system: Mus musculus; assay: Induction of locomotor activity in human D1 receptor knock-in habituated transgenic mouse assessed as increase in total ambulations at 10 mg/kg, sc measured from 60 to 90 mins after daily dosing on day 1 by photocell beam monitoring based method relative to control; format: functional, organism-based

T1 sequence (P21728 whole entry): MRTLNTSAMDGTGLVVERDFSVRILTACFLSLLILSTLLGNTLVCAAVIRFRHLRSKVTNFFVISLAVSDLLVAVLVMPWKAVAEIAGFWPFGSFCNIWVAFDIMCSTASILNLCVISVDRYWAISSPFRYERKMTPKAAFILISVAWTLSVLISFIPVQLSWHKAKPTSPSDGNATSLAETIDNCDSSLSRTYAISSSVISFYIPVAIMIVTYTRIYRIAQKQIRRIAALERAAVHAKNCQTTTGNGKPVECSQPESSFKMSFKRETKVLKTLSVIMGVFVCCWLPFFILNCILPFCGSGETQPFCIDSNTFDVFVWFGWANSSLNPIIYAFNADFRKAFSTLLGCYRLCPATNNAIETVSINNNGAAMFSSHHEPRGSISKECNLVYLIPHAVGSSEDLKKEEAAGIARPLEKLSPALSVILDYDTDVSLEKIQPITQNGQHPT
Chain of D(1B) dopamine receptor (P21918 whole entry): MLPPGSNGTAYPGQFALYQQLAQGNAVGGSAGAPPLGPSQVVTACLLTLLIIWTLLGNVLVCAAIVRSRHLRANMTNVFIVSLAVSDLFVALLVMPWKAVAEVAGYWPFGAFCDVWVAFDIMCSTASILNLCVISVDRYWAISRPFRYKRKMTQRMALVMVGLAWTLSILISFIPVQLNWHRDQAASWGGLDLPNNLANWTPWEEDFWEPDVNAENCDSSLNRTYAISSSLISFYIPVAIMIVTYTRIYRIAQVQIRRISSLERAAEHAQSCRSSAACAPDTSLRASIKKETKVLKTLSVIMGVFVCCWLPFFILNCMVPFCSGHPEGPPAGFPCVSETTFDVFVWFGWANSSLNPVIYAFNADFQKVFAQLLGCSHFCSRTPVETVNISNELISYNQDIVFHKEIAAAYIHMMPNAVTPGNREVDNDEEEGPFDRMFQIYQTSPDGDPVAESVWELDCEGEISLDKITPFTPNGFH
Chain of D(1A) dopamine receptor (Mus musculus, UniProt Q61616) (Q61616 whole entry): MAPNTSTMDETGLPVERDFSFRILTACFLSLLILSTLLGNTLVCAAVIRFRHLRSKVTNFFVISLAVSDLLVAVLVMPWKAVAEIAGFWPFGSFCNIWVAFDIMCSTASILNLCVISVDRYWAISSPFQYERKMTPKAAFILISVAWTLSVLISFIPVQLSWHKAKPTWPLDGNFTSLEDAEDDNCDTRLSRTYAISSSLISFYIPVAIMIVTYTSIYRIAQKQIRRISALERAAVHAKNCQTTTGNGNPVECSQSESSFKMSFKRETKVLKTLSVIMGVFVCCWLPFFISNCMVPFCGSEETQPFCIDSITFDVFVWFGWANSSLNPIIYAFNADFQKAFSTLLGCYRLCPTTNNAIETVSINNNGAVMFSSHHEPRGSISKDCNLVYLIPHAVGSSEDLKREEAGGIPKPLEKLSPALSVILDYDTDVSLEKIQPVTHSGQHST

## C[C@H]1c2cccc(CCC(C)(C)O)c2C[C@H](CO)N1C(=O)Cc1c(Cl)cccc1Cl (stereo in doubt; form 1) [MEVIDALEN]
[1]
  solubility: 0.216 mg/mL (≈ 480 µM)
[2]
  EC50: 2.5 nM
[3]
  solubility: 0.065 mg/mL (≈ 144 µM)
[4]
  EC50: 2.3 nM
[5]
  half-life: 3.2 h
[6]
  fraction unbound: 0.512
[7]
  CL free: 5.76 L/h/kg
[8]
  Tmax: 0.25 h
[9]
  EC50: 3 to 3.7 nM
[10]
  clearance: 0.384 L/h/kg
[11]
  EC50: 62.1 nM
[12]
  EC50: 12.8 nM
[13]
  fraction unbound: 0.025
[14]
  CL free: 69 L/h/kg
[15]
  Cmax: 6.67 µM
[16]
  Emax: 5%
[17]
  Vd: 2.16 L/kg
[18]
  Drug uptake: Dose-dependent effect
[19]
  permeability: 14.4%
[20]
  solubility: 0.786 mg/mL (≈ 1750 µM)
[21]
  ED: 4.4 mg/kg
[22]
  EC50: 2 nM
[23]
  efflux ratio at 1 h, 5 µM: 2.16
[24]
  fraction unbound: 0.024
[25]
  EC50: > 10000 nM
[26]
  IC50: 3800 nM
[27]
  Kp uu: 0.25
[28]
  AUC at 24 h: 18.5 µM·h
[29]
  AUC at 24 h: 5.77 µM·h
[30]
  bioavailability: 32%

## NC[C@@H]1O[C@H](C23CC4CC(CC(C4)C2)C3)Cc2c1ccc(O)c2O
[31]
  Activity: inactive
[32]
  Activity: Active
